According to paper PMC7732020 (Nucleosides, nucleotides & nucleic acids, 2009):
Like-named read-outs stand apart in the source and are kept apart here.

Tests used:
[1] = tested on: Huh-7 Replicon cells; test: Toxicity in Huh-7 Replicon cells; conditions: read-out: CC50 (toxicity in Huh-7 Replicon cells); replicon assay Huh7 cells
[2] = tested on: HCV; test: Anti-HCV activity in replicon assay Huh7 cells; format: cell-based, hepatitis C virus; conditions: for EC50: read-out: Anti-HCV activity EC50; for EC90: read-out: Anti-HCV activity EC90
[3] = tested on: HIV-1; test: Anti-HIV-1 activity in human PBM cells; format: cell-based; conditions: primary human PBM cells; for EC50: read-out: Anti-HIV-1 activity EC50; for EC90: read-out: Anti-HIV-1 activity EC90
[4] = tested on: CEM cells
[5] = tested on: human PBM cells
[6] = tested on: Vero cells
[7] = tested on: HIV; conditions: isomeric adenine nucleosides with 2′-α-fluoro atom; cited from earlier work
[8] = tested on: human PBM cells; conditions: cited from earlier work
[9] = tested on: HIV-1; conditions: read-out: Anti-HIV-1 activity EC50; PBM cells; taken from literature; cited from earlier work

## C[C@@]1(O)[C@H](O)[C@@H](CO)O[C@H]1n1ccc(N)nc1=O [Compound 2-C-Me-C, reference compound]
[1]
  CC50: > 10 µM
[2]
  EC50: 1.3 µM
  EC90: 5.4 µM

## Nc1ncnc2c1ncn2[C@@H]1O[C@H](CO)[C@@H](F)[C@@H]1F [Compound 20, 9-(2′,3′-Dideoxy-2′,3′-difluoro-β-D-arabinofuranosyl)adenine]
[3]
  EC50: 720 nM
  EC90: 10.3 µM
[4]
  CC50: > 100 µM
[1]
  CC50: > 10 µM
[5]
  CC50: > 100 µM
[6]
  CC50: > 100 µM
[2]
  EC50: > 10 µM
  EC90: > 10 µM

## Nc1ncnc2c1ncn2[C@@H]1O[C@H](CO)C[C@H]1F [2′-α-FddA, 9-(2′,3′-dideoxy-2′-fluoro-β-D-erythro-pentofuranosyl)adenine]
[7]
  antiviral activity: without antiviral activity

## Nc1ncnc2c1ncn2[C@@H]1O[C@H](CO)[C@@H](F)[C@H]1F [2′,3′-dideoxy-2′,3′-difluoro–adenosine]
[7]
  antiviral activity: without antiviral activity

## Nc1ncnc2c1ncn2[C@@H]1O[C@H](CO)C[C@@H]1F [2′-β-FddA, lodenosine]
[8]
  CC50: > 100 µM
[9]
  EC50: 4.4 µM

## Nc1nc(Cl)nc2c1ncn2[C@@H]1O[C@H](CO)[C@@H](F)[C@@H]1F [Compound 22, 2-chloro-9-(2′,3′-dideoxy-2,3-difluoro-β-D-arabinofuranosyl)adenine]
[3]
  EC50: 14100 nM
  EC90: 46.3 µM
[4]
  CC50: 70.2 µM
[1]
  CC50: > 10 µM
[5]
  CC50: 13.6 µM
[6]
  CC50: > 100 µM
[2]
  EC50: > 10 µM
  EC90: > 10 µM

## Cc1cn([C@H]2C[C@H](N=[N+]=[N-])[C@@H](CO)O2)c(=O)[nH]c1=O [AZT, reference compound]
[3]
  EC50: 2.6 nM
  EC90: 0.01 µM
[5]
  CC50: > 100 µM
[6]
  CC50: 56 µM
